Patent US9314507B2, “Methods of treatment of heart failure with natriuretic peptides” (Capricor Therapeutics, INC., priority 2010, dated 2016)
Where a SMILES comes first, the peptide text is derived from it. Bridges are numbered along the chain shown (N, C = ends).

Key:
Assay type in all cases: in vivo, human
clinical = details: human, in vivo; read-out: terminal elimination half-life
healthy subjects = assay: clinical
[1] = system: patients hospitalized with acute heart failure requiring hemodynamic monitoring; assay: Hemodynamic Monitoring Phase 2a clinical study (Hemo Study, NIL-CDNP-CT003)
Experimental: Another exemplary study using CD-NP was a multi-center, open-label Phase 2a clinical study of CD-NP in patients hospitalized with acute heart failure requiring hemodynamic monitoring (Hemo Study, or NIL-CDNP-CT003). This study considered the efficacy of 8 hours of intravenous administration of CD-NP on changes in cardiac output and pulmonary capillary wedge pressure (PCWP, or wedge pressure).
Stabilized acute heart failure patients requiring hemodynamic monitoring, and receiving standard-of-care heart failure medications (i.e., furosemide infusion), received an initial 8-hour CD-NP infusion followed by a 14-hour washout period, and then a further 8-hour CD-NP infusion. Hemodynamic measurements were collected for an additional 8 hours and safety measurements were collected for a further 2 days.
Patients were enrolled into one of two sequential cohorts (Cohort A and B) which could include up to 10 evaluable patients in each cohort. Cohort A received 8 hours of 3 ng/kg/min CD-NP, followed by a 14 hour wash-out period, and then 8 hours of 10 ng/kg/min CD-NP. Cohort B received 8 hours of 1 ng/kg/min CD-NP, followed by a 14 hour wash-out period, and then 8 hours of 20 ng/kg/min CD-NP.
The first 2 hours, (−2 to 0) represent time before administration of CD-NP. Hours 0 to 38 represent time during the CD-NP dosing regimen discussed above.

[2] = system: patients with chronic heart failure; assay: Dosing study (fixed and weight-based dose)
Experimental: In a dosing study, CD-NP was administered to patients with chronic heart failure. The amount of CD-NP administered was either a set amount (in μg/hr) regardless of the patient's weight, or was varied based on the patient's weight.
In FIG. 10a, the steady state average (SS Avg) serum concentration of CD-NP in pg/mL is plotted against patient weight for patients who received low (18 μg/hr) and medium (24 μg/hr) doses of CD-NP.
The placebo group had no significant change in SBP over the course of the study. […] In one aspect, the SBP decrease for doses 24 μg/hr is insufficient to cause a risk of hypotension. […] The weight-based group received a dose that depended on the patients weight. Using PK data, for example the linear fit of data from FIG. 10a, the dose was adjusted to give a predicted serum concentration of 500 pg/mL.
As depicted in FIG. 12, the concentration of CD-NP in serum vs. time after initial dosing for patients on a low dose and a medium dose.

CC[C@H](C)[C@@H]1NC(=O)[C@H](CCCNC(=N)N)NC(=O)[C@H](CC(=O)O)NC(=O)[C@H](CCCCN)NC(=O)[C@H](CC(C)C)NC(=O)CNC(=O)[C@H](Cc2ccccc2)NC(=O)[C@@H](NC(=O)CNC(=O)[C@H](CCCCN)NC(=O)[C@H](CO)NC(=O)[C@H](CC(C)C)NC(=O)CN)CSSC[C@@H](C(=O)N2CCC[C@H]2C(=O)N[C@@H](CO)C(=O)N[C@@H](CC(C)C)C(=O)N[C@@H](CCCNC(=N)N)C(=O)N[C@@H](CC(=O)O)C(=O)N2CCC[C@H]2C(=O)N[C@@H](CCCNC(=N)N)C(=O)N2CCC[C@H]2C(=O)N[C@@H](CC(N)=O)C(=O)N[C@@H](C)C(=O)N2CCC[C@H]2C(=O)N[C@@H](CO)C(=O)N[C@H](C(=O)N[C@@H](CO)C(=O)N[C@@H](C)C(=O)O)[C@@H](C)O)NC(=O)CNC(=O)[C@H](CC(C)C)NC(=O)CNC(=O)[C@H](CO)NC(=O)[C@H](CCSC)NC(=O)[C@H](CO)NC(=O)CNC1=O [CD-NP, cenderitide] (H-GLSKGCFGLKDRIGSMSGLGCPSLRDPRPNAPSTSA-OH; disulfide 6-21; N-terminus and C-terminus assumed)
half-life (clinical): 15 to 20 min
orthostatic hypotension immediately after the infusion (healthy subjects; 17.5 ng/kg/min, vs placebo arm): more events were observed in the CD-NP arm
subjects with symptomatic hypotension in association with orthostatic challenge immediately post-infusion (healthy subjects; 25 ng/kg/min): two out of four
symptomatic hypotension during CD-NP dosing (healthy subjects; during dosing): did not induce symptomatic hypotension
maximum tolerated dose (MTD) (healthy subjects; healthy subjects, 10, 17.5 and 25 ng/kg/min tested): 17.5 ng/kg/min
time to steady state of natriuretic peptide (healthy subjects; infusion): 1 to 2 h
SBP below 90 mmHg ([1]; 20 ng/kg/min, 8 h infusion, FIG. 4b): one patient had a transient dip in SBP below 90 mmHg
well tolerated dose ([1]; previous studies, co-administered with furosemide to stabilized heart failure patients): up to 20 ng/kg/min
area under the curve (AUC) vs patient weight ([2]; FIG. 10b): decreases with increasing patient weight
change in SBP ([2]; high dose 36 μg/hr (600 ng/min)): decrease in SBP that could possibly cause hypotension
steady state average (SS Avg) serum concentration vs patient weight ([2]; low (18 μg/hr) and medium (24 μg/hr) doses, FIG. 10a): decreases with increasing patient weight
